# Experimental data published in patent publication US12116371B2, “Substituted pyridines as irreversible inhibitors of menin-MLL interaction” (BIOMEA FUSION, INC., priority 2018, dated 2024).
# Where two headings read alike, the source gives them in different places.
# Key:
# [1] = tested on: HL-60 cells; experiment: Long-term proliferation (LTP) assay, CellTiterGlo (Example 103); assay type: cell-based; conditions: for IC50: Homo sapiens
# Experimental: (§1) The day of the experiment (TO) all the cell line suspensions were counted by Cell Viability Analyser, Vi-CELL and properly diluted with fresh medium to obtain the cell density reported in the Test System paragraph.
# (§2) Cells were tested after 4 passages after thawing.
# (§3) 200 μL/well and 150 μL/well of cell suspension were added into the 0.4 µL/well and 0.3 μL/well compound plates, respectively. • Cell plate containing 200 μL/well suspension was incubated at 37° C. in a humidified incubator with 5% CO2. • From each well of the 150 µL/well cell assay plate, 100 μL were harvested and transferred into a 96-well Optiplate (Perkin Elmer, Cat. n. 6005290) and cell viability was measured as described in 4.3 paragraphs (TO). • After four days in culture (T4) 150 μL/well of fresh medium were added into a new […] copy compound plate. • From each well of the 200 μL/well cell assay plate: • 100 μL were sampled for the cell viability measurement as described in 4.3 paragraphs (T4). • 50 μL were harvested and added to the 150 μL/well compound plate prepared as described in the first point to dilute 1:4 the cell suspension. • The cell assay plate diluted and containing 200 µL/well suspension were incubated at 37° C. in a humidified incubator with 5% CO2.
# (§4) At T7-T11-T14 it was proceeded as described in T4, with the exception that no further cell dilution was carried out at T14.
# (§5) Plates containing the samples to be tested were equilibrated at room temperature for approximately 30 min and then 30 μL/well of the Promega CellTiterGlo® reagent were added. Contents will be mixed for 5 min on an orbital shaker to induce cell lysis and then incubated at room temperature for an additional 10 min to stabilize the luminescent signal.
# (§6) Luminescence was read by using VictorV (Perkin Elmer) multilabel plate reader using the standard protocol for luminescence in 96 well plate.
# (§7) Data were expressed as % of inhibition compared to the 0.2% DMSO negative control, and was calculated as follows: % inhibition=100−[(RLU sample)×100/(RLU average controls*)] • *cells containing 0.2% DMSO
# (§8) CRCs were analysed by GraphPad and IC50 values were calculated by non-linear regression using 4 parameter-logistic equation. IC50 (M) values were reported in the final data table.
# [2] = tested on: RS4-11 (MLL-AF4) cells; experiment: as above; assay type: cell-based; conditions: for IC50: Homo sapiens, RS4-11 (MLL-AF4), LTP assay; for effect on cell viability at T4: RS4;11, increasing concentrations
# Experimental: as §1, §2, §3, §4, §5, §6, §7, §8
# [3] = tested on: HL-60 cells; experiment: Cell proliferation inhibition, CellTiterGlo viability assay, 4 days (Example 102); assay type: cell-based; conditions: 4 days treatment
# Excerpt: (§9) The objective of the study was to evaluate the ability of compounds of the invention, inhibitors of Menin/MLL interaction to inhibit cell proliferation. The proliferation inhibitory effect was investigated in two human MLL-leukemia cells selected on the bases of MLL fusion protein and listed in Table 1. HL-60 cell line was used as negative control (Table 3).
# (§10) ATP is present in all metabolically active cells and is considered as a marker for cell viability and proliferation. The metabolic cell activity was determined using the CellTiter-Glo kit from Promega, an ATP monitoring system based on the production of luminescence by the reaction of ATP with added UltraGlo® recombinant luciferase (Kawano et al., 2016), according to the supplier's experimental recommendations.
# (§11) The described assay evaluates the ability of representative compounds of invention to inhibit the cell proliferation in the human MLL-leukemia cells plus a negative control cell line.
# (§12) The assay provides potency values (IC50) for each test compound at a single time point Day 4 (T4).
# (§13) Seven concentrations of the NCEs (2.00E-05-6.67E-06-2.22E-06-7.41E-07-2.47E-07-8.23E-08-2.74E-08M), were assessed in duplicate in an individual test occasion in all the cell lines. MI-503 (Borkin et al., 2015) was used as reference compound and was tested at the same concentrations as the NCEs. 100% of proliferation is represented by the untreated cells (0.2% DMSO). The cell growth was monitored up to 4 days in culture.
# (§14) MV4-11, MOLM-13 and HL-60 cells (see Table 2) were maintained in RPMI-1640 medium (Invitrogen, Cat. n. 618700, Batch n. 1965930) supplemented with 10% of Heat Inactivated FBS (Invitrogen, Cat n. 10500, Batch n. 08Q8078K) and 1% Pen-Strep (Invitrogen, Cat. N. 15140, Batch n. 1910859) and cultured at 37° C. in a humidified incubator with 5% CO2. All the cell lines grow in suspension and the cell density was maintained in a range of 2×10^5-1×10^6 viable cells/ml. Cells were pelleted at 130 g×5 min and conditioned medium was used to dilute the cell suspension.
# (§15) Cells were plated in 96-well flat bottom microtiter plates at cell density of 15,000 cells/ml for HL-60, 1000 cells/ml for MOLM-13 and 10,000 cell/ml for MV4-11. Cells were treated with 0.2% DMSO (Sigma, D8418, batch n. SHBH4245V) or serial dilutions of compounds ([…]) in DMSO (0.2% final concentration). Cells were incubated in a 5% CO2 incubator at 37° C. for 4 days. A CellTiterGlo viability assay (Promega) was employed. Luminescence was read by using VictorV (Perkin Elmer) multilabel plate reader using the standard protocol for luminescence in 96 well plate. The experiment was performed in duplicate.
# (§16) Data were expressed as % of inhibition compared to the 0.2% DMSO negative control, and was calculated as follows: % inhibition=100−[(RLU sample)×100/(RLU average controls*)]*cells containing 0.2% DMSO
# (§17) CRCs were analysed by GraphPad and IC50 values were calculated by non-linear regression using 4 parameter-logistic equation. IC50 (μM) values were reported in the final data table. The curve fittings were performed leaving free all the parameters. Any constrain were reported in the results table.
# [4] = tested on: MV4-11 (MLL-AF4) cells; experiment: as above; assay type: cell-based, human; conditions: 4 days treatment
# Excerpt: as §9, §10, §11, §12, §13, §14, §15, §16, §17
# [5] = tested on: MOLM-13 (MLL-AF9) cells; experiment: as above; assay type: cell-based, human; conditions: 4 days treatment
# Excerpt: as §9, §10, §11, §12, §13, §14, §15, §16, §17
# [6] = tested on: MV4-11 (MLL-AF4) cells; experiment: Long-term proliferation (LTP) assay, CellTiterGlo (Example 103); assay type: cell-based, human; conditions: for IC50: Homo sapiens, MV4-11 (MLL-AF4), LTP assay
# Experimental: as §1, §2, §3, §4, §5, §6, §7, §8
# [7] = tested on: MOLM-13 (MLL-AF9) cells; experiment: as above; assay type: cell-based, human; conditions: for IC50: Homo sapiens, MOLM-13 (MLL-AF9), LTP assay
# Experimental: as §1, §2, §3, §4, §5, §6, §7, §8
# [8] = target: T1, menin-MLL protein-protein interaction (Homo sapiens, UniProt O00255); conditions: S. Xu et al. Angewandte Chemie; cited from earlier work
# T1 sequence (O00255 1-610): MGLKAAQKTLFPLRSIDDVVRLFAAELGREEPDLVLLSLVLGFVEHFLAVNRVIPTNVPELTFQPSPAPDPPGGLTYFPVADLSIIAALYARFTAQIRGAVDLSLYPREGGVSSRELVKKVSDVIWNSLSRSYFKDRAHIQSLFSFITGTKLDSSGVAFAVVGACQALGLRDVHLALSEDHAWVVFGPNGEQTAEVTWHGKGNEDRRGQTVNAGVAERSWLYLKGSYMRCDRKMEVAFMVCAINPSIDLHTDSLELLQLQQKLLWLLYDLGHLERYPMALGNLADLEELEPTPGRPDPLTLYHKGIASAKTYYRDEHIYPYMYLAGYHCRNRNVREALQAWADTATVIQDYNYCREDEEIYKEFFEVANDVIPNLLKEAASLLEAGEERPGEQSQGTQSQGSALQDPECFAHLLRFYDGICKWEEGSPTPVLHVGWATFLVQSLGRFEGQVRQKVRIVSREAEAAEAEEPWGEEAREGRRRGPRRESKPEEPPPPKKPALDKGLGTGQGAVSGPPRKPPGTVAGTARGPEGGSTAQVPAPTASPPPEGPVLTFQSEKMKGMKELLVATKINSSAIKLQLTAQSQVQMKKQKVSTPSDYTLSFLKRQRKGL
# [9] = 96 h, Day 4, LTP assay, read-out: Day 4 IC50
# [10] = 168 h, Day 7, LTP assay, read-out: Day 7 IC50
# [11] = 264 h, Day 11, LTP assay, read-out: Day 11 IC50
# [12] = 336 h, Day 14, LTP assay, read-out: Day 14 IC50
# [13] = 96 h, Day 4, read-out: Day 4 IC50
# [14] = 168 h, Day 7, read-out: Day 7 IC50
# [15] = 264 h, Day 11, read-out: Day 11 IC50
# [16] = Homo sapiens, 96 h, read-out: IC50
# [17] = Homo sapiens, 96 h, read-out: pIC50 (converted)
# [18] = 336 h, Day 14, read-out: Day 14 IC50
SMILES,"IC50 [1, 9]","IC50 [1, 10]","IC50 [1, 11]","IC50 [1, 12]","IC50 [2, 13]","IC50 [2, 14]","IC50 [2, 15]",% max ([3]; CellTiterGlo),% max [4],% max [5],"IC50 [6, 13]","IC50 [6, 14]","IC50 [6, 15]","IC50 [6, 18]","IC50 [7, 13]","IC50 [7, 14]","IC50 [7, 15]","IC50 [7, 18]",effect on cell viability at T4 [2],further results
C=CC(=O)NC1CN(c2ccnc(NC(=O)Nc3ccc(-c4cc5c(N6CCOCC6)ncnc5[nH]4)cc3)c2)C1 [Compound 1],790 nM,600 nM,780 nM,890 nM,550 nM,112 nM,> 5000 nM,80%,98%,85%,760 nM,580 nM,550 nM,380 nM,830 nM,450 nM,500 nM,720 nM,,"IC50 ([3]; Homo sapiens, 96 h, CellTiterGlo, read-out: pIC50 (converted)): 195 nM; IC50 [3, 16]: 190 nM; IC50 [4, 16]: 150 nM; IC50 [4, 17]: 151 nM; IC50 [5, 16]: 200 nM; IC50 [5, 17]: 200 nM"
CN(C)C/C=C/C(=O)NC1CN(c2ccnc(NC(=O)Nc3ccc(-c4cc5c(N6CCOCC6)ncnc5[nH]4)cc3)c2)C1 [Compound 15],1150 nM,680 nM,850 nM,890 nM,1450 nM,1550 nM,> 5000 nM,,,,650 nM,460 nM,350 nM,350 nM,1020 nM,410 nM,320 nM,330 nM,fully inhibited,"effect on cell viability at T4 ([1]; T4, increasing concentrations): fully inhibited; effect on cell viability at T4 ([6]; MV4-11, T4, increasing concentrations): fully inhibited; effect on cell viability at T4 ([7]; MOLM-13, T4, increasing concentrations): fully inhibited"
C=CC(=O)NC1CN(c2ccnc(NC(=O)Nc3ccc(-c4nc5c(N6CCOCC6)nccc5[nH]4)cc3)c2)C1 [Compound 23],,,> 5000 nM,,1480 nM,930 nM,> 5000 nM,,,,,4370 nM,1700 nM,1230 nM,,,1410 nM,3890 nM,showed an effect,"activity up to T14 ([1]; up to T14): absence of activity; change of effect with the time in culture ([6]; MV4-11, along the 14 days in culture): increase of the effect; IC50 ([7]; 96 h, heading: Day 4 IC50, Day 4, read-out: Day 4 IC50): > 5000 nM; IC50 ([7]; 168 h, heading: Day 7 IC50, Day 7, read-out: Day 7 IC50): > 5000 nM; change of effect with the time in culture ([7]; MOLM-13, along the 14 days in culture): increase of the effect"
COC(=O)N[C@H]1CCC[C@@H]1[C@](C#N)(c1cccc(F)c1)C1CCN(CC2CN(c3ccc(S(=O)(=O)C4CN(C(=O)/C=C/CN(C)C)C4)cc3)C2)CC1 [Compound M-525],,,,,,,,,,,,,,,,,,,,potency relative to the corresponding reversible inhibitors [8]: > 30 times
"Cc1c(CN2CCC(Nc3ncnc4sc(CC(F)(F)F)cc34)CC2)ccc2c1cc(C#N)n2Cc1cn[nH]c1 [MI-503, reference compound]",,,,,,,,103%,100%,98%,,,,,,,,,,"pIC50 ([3]; CellTiterGlo): 6.38; IC50 ([3]; CellTiterGlo, read-out: IC50): 420 nM; pIC50 [4]: 6.73; IC50 ([4]; read-out: IC50): 190 nM; pIC50 [5]: 6.63; IC50 ([5]; read-out: IC50): 230 nM"
